Experimental data published in article PMC3322948, “Phase I first-in-human study of TAK-285, a novel investigational dual HER2/EGFR inhibitor, in cancer patients” (British Journal of Cancer, 2012).

Assay: Phase I safety, DLT and MTD in patients with solid tumours
Assay type: in vivo
From the text: This was a phase I, multicentre, open-label study, conducted to investigate the safety, pharmacokinetics (PKs), and determine the maximum tolerated dose (MTD) of oral TAK-285 in patients with solid tumours. Two cohorts were planned for this study: a dose escalation cohort and a repeated administration cohort. In the dose escalation cohort, patients received a single oral dose of TAK-285, followed by 2–6 days of observation without treatment, followed by treatment with the same dose if the safety was confirmed. In this cohort, patients received TAK-285 […]. One cycle was 4 weeks, consisting of 3 weeks of treatment and 1 week of observation without treatment. TAK-285 was given once daily (q.d.) or twice daily (b.i.d.). The dose was escalated from a starting dose of 50 mg until the MTD was determined. In the repeated administration cohort, patients were treated with oral TAK-285 at the MTD for at least 4 weeks in order to confirm safety.
In the dose escalation cohort, the dose of TAK-285 was decided by consideration of adverse events (AEs) observed during the first cycle. […] Dose escalation was continued until the MTD was determined. The dose of TAK-285 was increased by 100 or 40% in accordance with accelerated titration designs reported previously ([Simon et al, 1997]). A DLT was defined as any TAK-285-related grade 4 haematological toxicity, grade 3 or worse non-haematological toxicity, grade 3 or worse neutropenia (<1000 mm^–3) with fever of 38 °C or higher, or toxicity resulting in cessation of treatment for >21 consecutive days (including the stipulated period of observation without treatment).
Safety evaluations included vital signs (oxygen saturation, body temperature, breathing rate, blood pressure and pulse), clinical laboratory tests, lung function tests (pulmonary surfactant protein-A, pulmonary surfactant protein-D, Krebs von den Lunge-6 and arterial blood gas analysis), chest X-ray, and 12-lead electrocardiogram (ECG). These tests were performed weekly with the exception of chest X-rays (every 4 weeks), arterial blood gas analysis (at screening) and ECG (4 time points each at screening, on day 1 and day 8, after DLT assessment, one time point every 4 weeks). All ECG charts were submitted to the ECG evaluation committee to assess cardiac function. Adverse events were graded based on the National Cancer Institute Common Toxicity Criteria for Adverse Events, version 3.0 (Bethesda, MD, USA).

CC(C)(O)CC(=O)NCCn1ccc2ncnc(Nc3ccc(Oc4cccc(C(F)(F)F)c4)c(Cl)c3)c21 [TAK-285]
patients who died during the study (cause considered unrelated to TAK-285): Two
Alanine aminotransferase increased ⩾Grade 3, number of patients (human, in vivo): 4
Alanine aminotransferase increased, incidence (human, in vivo): 46.2%
Alanine aminotransferase increased, number of patients (human, in vivo): 12
Any adverse events ⩾Grade 3, number of patients (human, in vivo): 12
Any adverse events, incidence (human, in vivo): 100.0%
Any adverse events, number of patients (human, in vivo): 26
Aspartate aminotransferase increased ⩾Grade 3, number of patients (human, in vivo): 3
Aspartate aminotransferase increased, incidence (human, in vivo): 46.2%
Aspartate aminotransferase increased, number of patients (human, in vivo): 12
Blood alkaline phosphatase increased ⩾Grade 3, number of patients (human, in vivo): 0
Blood alkaline phosphatase increased, incidence (human, in vivo): 19.2%
Blood alkaline phosphatase increased, number of patients (human, in vivo): 5
Blood bilirubin increased ⩾Grade 3, number of patients (human, in vivo): 1
Blood bilirubin increased, incidence (human, in vivo): 34.6%
Blood bilirubin increased, number of patients (human, in vivo): 9
Blood creatinine increased ⩾Grade 3, number of patients (human, in vivo): 0
Blood creatinine increased, incidence (human, in vivo): 11.5%
Blood creatinine increased, number of patients (human, in vivo): 3
Blood lactate dehydrogenase increased ⩾Grade 3, number of patients (human, in vivo): 1
Blood lactate dehydrogenase increased, incidence (human, in vivo): 19.2%
Blood lactate dehydrogenase increased, number of patients (human, in vivo): 5
Cancer pain ⩾Grade 3, number of patients (human, in vivo): 1
Cancer pain, incidence (human, in vivo): 19.2%
Cancer pain, number of patients (human, in vivo): 5
Constipation ⩾Grade 3, number of patients (human, in vivo): 0
Constipation, incidence (human, in vivo): 26.9%
Constipation, number of patients (human, in vivo): 7
Decreased appetite ⩾Grade 3, number of patients (human, in vivo): 2
Decreased appetite, incidence (human, in vivo): 23.1%
Decreased appetite, number of patients (human, in vivo): 6
Diarrhoea ⩾Grade 3, number of patients (human, in vivo): 0
Diarrhoea, incidence (human, in vivo): 34.6%
Diarrhoea, number of patients (human, in vivo): 9
Dry skin ⩾Grade 3, number of patients (human, in vivo): 0
Dry skin, incidence (human, in vivo): 15.4%
Dry skin, number of patients (human, in vivo): 4
Gamma-glutamyltransferase increased ⩾Grade 3, number of patients (human, in vivo): 4
Gamma-glutamyltransferase increased, incidence (human, in vivo): 26.9%
Gamma-glutamyltransferase increased, number of patients (human, in vivo): 7
Haemoglobin decreased ⩾Grade 3, number of patients (human, in vivo): 1
Haemoglobin decreased, incidence (human, in vivo): 11.5%
Haemoglobin decreased, number of patients (human, in vivo): 3
Nausea ⩾Grade 3, number of patients (human, in vivo): 0
Nausea, incidence (human, in vivo): 19.2%
Nausea, number of patients (human, in vivo): 5
Pyrexia ⩾Grade 3, number of patients (human, in vivo): 0
Pyrexia, incidence (human, in vivo): 23.1%
Pyrexia, number of patients (human, in vivo): 6
Rash ⩾Grade 3, number of patients (human, in vivo): 0
Rash, incidence (human, in vivo): 42.3%
Rash, number of patients (human, in vivo): 11
Stomatitis ⩾Grade 3, number of patients (human, in vivo): 0
Stomatitis, incidence (human, in vivo): 11.5%
Stomatitis, number of patients (human, in vivo): 3
Vomiting ⩾Grade 3, number of patients (human, in vivo): 0
Vomiting, incidence (human, in vivo): 15.4%
Vomiting, number of patients (human, in vivo): 4
grade 4 AEs related to TAK-285 (human, in vivo): no grade 4 AEs
grade of diarrhoea (human, in vivo): ≤ 2 grade
grade of rash (human, in vivo): ≤ 2 grade
lung function tests, chest X-rays, vital signs or ECGs (human, in vivo): No clinically significant changes
patients with AEs considered related to TAK-285, number (human, in vivo): 22
patients with AEs considered related to TAK-285, percent (human, in vivo): 84.6%
patients with dose-limiting toxicities (human, in vivo): two
pneumonitis (human, in vivo): not reported
related AEs grade 2, number of patients (human, in vivo): 11
related AEs grade 2, percent of patients (human, in vivo): 42.3%
related AEs grade 2 or lower, number of patients (human, in vivo): 17
related AEs grade 2 or lower, percent of patients (human, in vivo): 65.4%
related AEs grade 3, number of patients (human, in vivo): 5
related AEs grade 3, percent of patients (human, in vivo): 19.2%
maximum tolerated dose (MTD) (oral, patients with solid tumours): 300 mg b.i.d.
